Patent US9440901B2, “Method for producing reduced coenzyme Q10” (KANEKA CORPORATION, priority 2012, dated 2016)

Experiments:
[1] = solubility of the crystal forms of reduced coenzyme Q10; assay type: physicochemical; conditions: compared to Form I crystal
[2] = background statement; cited from earlier work

Structure (SMILES)	solubility compared with conventional reduced coenzyme Q10 crystals (Form I) [1]	oral absorbability compared to oxidized coenzyme Q10 [2]
COc1c(O)c(C)c(C/C=C(\C)CC/C=C(\C)CC/C=C(\C)CC/C=C(\C)CC/C=C(\C)CC/C=C(\C)CC/C=C(\C)CC/C=C(\C)CC/C=C(\C)CCC=C(C)C)c(O)c1OC [Form II, reduced coenzyme Q10]	lower solubility	
COc1c(O)c(C)c(C/C=C(\C)CC/C=C(\C)CC/C=C(\C)CC/C=C(\C)CC/C=C(\C)CC/C=C(\C)CC/C=C(\C)CC/C=C(\C)CC/C=C(\C)CCC=C(C)C)c(O)c1OC [reduced coenzyme Q10]		high oral absorbability
